The test system of assay [1] is gel-filtered human thrombocytes. The experiment in a line: Inhibition of the aggregation of gel-filtered human thrombocytes following stimulation with ADP or thrombin (Test method 1). It is filed as cell-based. The note with it: 1 mg/ml fibrinogen, 37° C., GFP from 2-4 donors. The method, then:
As a functional test, measurement is made of the inhibition of the aggregation of gel-filtered human thrombocytes, following stimulation with ADP or thrombin, by the compounds according to the invention.
For this purpose, human thrombocytes were isolated from platelet-rich plasma (PRP) by gel filtration on Sepharose 2 B. The resulting suspension of gel-filtered platelets (GFP), which contained 3×10^8 platelets/ml, was activated in the presence of 1 mg/ml of fibrinogen either with 10 μM ADP or with 0.1 U/ml thrombin, and stirred in an aggregometer (PAP 4, Biodata, Hatboro, Penna., USA) at 37° C. and at 1000 revolutions per minute. The maximum increase in the translucency is taken as a measure of the aggregation. The test substances were added to the GFP at 37° C. and 2 min before activating with ADP or thrombin.

Assay [2] has as its target T1, isolated fibrinogen receptor (glycoprotein IIb/IIIa) (Homo sapiens, UniProt P05106+P08514).
T1 construct: isolated from human thrombocytes and immobilized in microtitre plates; from tissue; host or cells: human thrombocytes (platelets), receptor isolated
The experiment in a line: Inhibition of 125I-fibrinogen binding to the isolated, immobilized receptor (glycoprotein IIb/IIIa) (Test method 3). Conditions: isolated receptor immobilized in microtitre plates; read-out: Ki, inhibition of the binding of 125I-fibrinogen, ADP-stimulated. On the procedure: The inhibition of the binding of fibrinogen to its receptor (glycoprotein IIb/IIIa) which is brought about by the compounds according to the invention is tested on the isolated receptor, which was isolated from human thrombocytes and immobilized in microtitre plates.

For assay [3], the target named is T2, fibrinogen receptor (glycoprotein IIb/IIIa) on intact, gel-filtered human thrombocytes (Homo sapiens, UniProt P05106+P08514).
T2 construct: endogenous in cells; host or cells: human thrombocytes isolated from platelet-rich plasma by gel filtration on Sepharose 2 B
Put plainly: Inhibition of 125I-fibrinogen binding to its receptor (glycoprotein IIb/IIIa) on intact, gel-filtered human thrombocytes (Test method 2). Conditions: intact GFP, 10 μM ADP, 40 nmol/l 125I-fibrinogen, room temperature, 30 min; read-out: Ki, inhibition of the binding of 125I-fibrinogen, ADP-stimulated. On the procedure: The inhibition of the binding of fibrinogen to its receptor (glycoprotein IIb/IIIa) by the compounds according to the invention is tested on intact, gel-filtered human thrombocytes.
For this purpose, human thrombocytes were isolated from platelet-rich plasma (PRP) by gel filtration on Sepharose 2 B. A suspension of gel-filtered platelets (GFP) was obtained which contained 4×10^8platelets/ml. […] Aliquots of 100 μl were then added onto 20% sucrose, and the platelets were sedimented by being centrifuged for 2 minutes at 12,000 revolutions per minute. The supernatant was decanted carefully and completely and the remaining sediment was measured in a gamma counter. The specific binding was ascertained by subtracting the binding in the presence of an excess (10 μM) of unlabelled fibrinogen from the total bound radioactivity.

Setting [4] is: ADP-stimulated (10 μM ADP), read-out: IC50, inhibition of thrombocyte aggregation, ADP-stimulated.
Where [5] appears, read: Thrombin-stimulated (0.1 U/ml thrombin), read-out: IC50, inhibition of thrombocyte aggregation, Thrombin-stimulated.
Setting [6] is: Homo sapiens, ADP-stimulated (10 μM ADP), read-out: IC50, inhibition of thrombocyte aggregation, ADP-stimulated.
Where [7] appears, read: Homo sapiens, Thrombin-stimulated (0.1 U/ml thrombin), read-out: IC50, inhibition of thrombocyte aggregation, Thrombin-stimulated.

Molecules are shown by their SMILES. Structures can show the parent of a compound that is named as a salt. Where two headings read alike, the source gives them in different places.

T1 sequence (P08514 32-887 limits assumed): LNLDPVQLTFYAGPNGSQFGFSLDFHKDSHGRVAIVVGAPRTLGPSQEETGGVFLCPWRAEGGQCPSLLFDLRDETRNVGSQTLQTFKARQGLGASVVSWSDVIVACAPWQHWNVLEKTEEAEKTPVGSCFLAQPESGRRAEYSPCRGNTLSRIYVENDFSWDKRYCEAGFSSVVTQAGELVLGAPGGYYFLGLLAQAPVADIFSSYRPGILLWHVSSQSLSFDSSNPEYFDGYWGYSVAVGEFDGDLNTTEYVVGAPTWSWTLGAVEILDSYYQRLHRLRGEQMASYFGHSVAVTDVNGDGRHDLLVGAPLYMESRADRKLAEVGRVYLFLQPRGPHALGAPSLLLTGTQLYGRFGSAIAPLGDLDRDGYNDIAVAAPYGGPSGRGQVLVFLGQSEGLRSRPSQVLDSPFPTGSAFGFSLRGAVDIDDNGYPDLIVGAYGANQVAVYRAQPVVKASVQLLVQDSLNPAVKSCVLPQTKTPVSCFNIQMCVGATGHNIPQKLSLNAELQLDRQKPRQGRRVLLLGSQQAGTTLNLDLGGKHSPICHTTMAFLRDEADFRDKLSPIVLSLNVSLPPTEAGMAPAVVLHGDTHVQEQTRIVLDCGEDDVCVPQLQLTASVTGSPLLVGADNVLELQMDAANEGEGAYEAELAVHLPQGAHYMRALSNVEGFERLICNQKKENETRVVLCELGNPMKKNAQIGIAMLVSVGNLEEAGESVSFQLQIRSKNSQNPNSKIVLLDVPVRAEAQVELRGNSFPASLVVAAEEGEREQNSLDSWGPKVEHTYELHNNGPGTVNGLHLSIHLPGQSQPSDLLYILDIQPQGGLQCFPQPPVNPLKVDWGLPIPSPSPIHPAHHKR
T1 sequence (P08514 891-1039 partner limits assumed): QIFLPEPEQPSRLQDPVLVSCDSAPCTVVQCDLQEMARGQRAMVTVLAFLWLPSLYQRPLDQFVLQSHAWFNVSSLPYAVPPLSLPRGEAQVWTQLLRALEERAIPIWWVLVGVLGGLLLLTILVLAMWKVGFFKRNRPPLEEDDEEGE
T1 sequence (P05106 27-788): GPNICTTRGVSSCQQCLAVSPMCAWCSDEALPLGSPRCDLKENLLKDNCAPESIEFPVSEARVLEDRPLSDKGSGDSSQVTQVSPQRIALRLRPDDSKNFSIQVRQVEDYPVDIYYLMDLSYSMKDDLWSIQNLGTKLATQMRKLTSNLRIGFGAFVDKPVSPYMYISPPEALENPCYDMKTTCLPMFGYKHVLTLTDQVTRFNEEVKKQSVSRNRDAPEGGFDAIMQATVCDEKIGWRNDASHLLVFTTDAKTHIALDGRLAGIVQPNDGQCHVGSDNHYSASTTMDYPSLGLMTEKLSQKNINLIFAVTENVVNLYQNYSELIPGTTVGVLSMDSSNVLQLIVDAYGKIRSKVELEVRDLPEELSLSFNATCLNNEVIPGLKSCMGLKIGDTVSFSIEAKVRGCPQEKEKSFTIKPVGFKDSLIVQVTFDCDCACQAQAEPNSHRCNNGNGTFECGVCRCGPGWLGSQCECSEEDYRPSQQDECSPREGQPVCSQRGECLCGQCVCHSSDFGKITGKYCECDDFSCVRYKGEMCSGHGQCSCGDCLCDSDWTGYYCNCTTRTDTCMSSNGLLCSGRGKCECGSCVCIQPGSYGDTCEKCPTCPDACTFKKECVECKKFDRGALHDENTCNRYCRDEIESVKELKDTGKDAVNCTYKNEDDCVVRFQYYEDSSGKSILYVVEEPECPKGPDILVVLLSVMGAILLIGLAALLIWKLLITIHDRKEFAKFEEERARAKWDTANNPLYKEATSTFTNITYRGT
T2 sequence (P08514 32-887 limits assumed): as the sequence (P08514 32-887 limits assumed) above
T2 sequence (P08514 891-1039 partner limits assumed): as the sequence (P08514 891-1039 partner limits assumed) above
T2 sequence (P05106 27-788): as the sequence (P05106 27-788) above

Regarding `CC1(c2ccc(C(=N)N)cc2)NC(=O)N(CC(=O)N[C@@H](CC(=O)O)c2ccccc2)C1=O` (single isomer, unassigned) [Example 57, (S)-3-(((S or R)-4-(4-Aminoiminomethyl)phenyl)-4-methyl-2,5-dioxoimidazolidin-1-yl)acetylamino)-3-phenylpropionic acid], the values for the IC50 in assay [1] (setting [4]) and in assay [1] (setting [5]) were 6000 nM and 5000 nM, respectively. Also, the Ki is 37.3 nM in assay [2] and 1970 nM in assay [3].

`CC1(c2ccc(C(=N)N)cc2)NC(=O)N(CC(=O)N[C@@H](CC(=O)O)c2ccccc2)C1=O` (single isomer, unassigned) [Example 58, (S)-3-(((R or S)-4-(4-Aminoiminomethyl)phenyl)-4-methyl-2,5-dioxoimidazolidin-1-yl)acetylamino)-3-phenylpropionic acid]: the results for the IC50 in assay [1] (setting [4]) and in assay [1] (setting [5]) were 20 nM and 25 nM, respectively. For the same compound, the values for the Ki in assay [2] and in assay [3] were 0.172 nM and 9.2 nM, respectively.

Take `CC1(c2ccc(C(=N)N)cc2)NC(=O)N(CC(=O)N[C@@H](CC(=O)O)C(=O)N[C@H](C(=O)O)c2ccccc2)C1=O` (stereo partly drawn) [Example 1, ((R,S)-4-(4-(Aminoiminomethyl)phenyl)-4-methyl-2,5-dioxoimidazolidin-1-yl)-acetyl-L-aspartyl-L-phenylglycine]: the IC50 came out at 40 nM in assay [1] (setting [6]) and 50 nM in assay [1] (setting [7]). Also, the Ki in assay [2] amounted to 0.172 nM; in assay [3], 13.2 nM.

Turning to `CC1(c2ccc(C(=N)N)cc2)NC(=O)N(CC(=O)N[C@@H](CC(=O)O)c2ccccc2)C1=O` (stereo partly drawn) [Example 56, (S)-3-(((R,S)-4-(4-(aminoiminomethyl)phenyl)-4-methyl-2,5-dioxoimidazolidin-1-yl)acetylamino)-3-phenylpropionic acid hydrochloride], the IC50 in assay [1] (setting [6]) came out at 100 nM; in assay [1] (setting [7]), 60 nM. Further, the Ki in assay [2] came out at 0.486 nM; in assay [3], 21.8 nM.

The values are drawn from US6191282A, “Substituted 5-membered ring heterocycles comprising a bicyclic or tricyclic group their preparation and their use” (Hoechst Marion Roussel, priority 1993, dated 2001).
